According to patent publication US12570643B2, “3-aryloxy-3-five-membered heteroaryl propylamine compound, and crystal form and use thereof” (Shanghai Leado Pharmatech Co. Ltd., priority 2019, dated 2026):

Legend:
TRPA1 = biological target: T1, TRPA1 (Mus musculus, UniProt Q8BLA8); experiment: TRPA1 inhibitory activity, IonWorks Barracuda (IWB) automatic patch clamp detection; assay type: cell-based; settings: automatic patch clamp
T1 construct: expressed in transfected cells; host or cells: HEK293 cells stably expressing TRPA1
T1 sequence (Q8BLA8 whole entry): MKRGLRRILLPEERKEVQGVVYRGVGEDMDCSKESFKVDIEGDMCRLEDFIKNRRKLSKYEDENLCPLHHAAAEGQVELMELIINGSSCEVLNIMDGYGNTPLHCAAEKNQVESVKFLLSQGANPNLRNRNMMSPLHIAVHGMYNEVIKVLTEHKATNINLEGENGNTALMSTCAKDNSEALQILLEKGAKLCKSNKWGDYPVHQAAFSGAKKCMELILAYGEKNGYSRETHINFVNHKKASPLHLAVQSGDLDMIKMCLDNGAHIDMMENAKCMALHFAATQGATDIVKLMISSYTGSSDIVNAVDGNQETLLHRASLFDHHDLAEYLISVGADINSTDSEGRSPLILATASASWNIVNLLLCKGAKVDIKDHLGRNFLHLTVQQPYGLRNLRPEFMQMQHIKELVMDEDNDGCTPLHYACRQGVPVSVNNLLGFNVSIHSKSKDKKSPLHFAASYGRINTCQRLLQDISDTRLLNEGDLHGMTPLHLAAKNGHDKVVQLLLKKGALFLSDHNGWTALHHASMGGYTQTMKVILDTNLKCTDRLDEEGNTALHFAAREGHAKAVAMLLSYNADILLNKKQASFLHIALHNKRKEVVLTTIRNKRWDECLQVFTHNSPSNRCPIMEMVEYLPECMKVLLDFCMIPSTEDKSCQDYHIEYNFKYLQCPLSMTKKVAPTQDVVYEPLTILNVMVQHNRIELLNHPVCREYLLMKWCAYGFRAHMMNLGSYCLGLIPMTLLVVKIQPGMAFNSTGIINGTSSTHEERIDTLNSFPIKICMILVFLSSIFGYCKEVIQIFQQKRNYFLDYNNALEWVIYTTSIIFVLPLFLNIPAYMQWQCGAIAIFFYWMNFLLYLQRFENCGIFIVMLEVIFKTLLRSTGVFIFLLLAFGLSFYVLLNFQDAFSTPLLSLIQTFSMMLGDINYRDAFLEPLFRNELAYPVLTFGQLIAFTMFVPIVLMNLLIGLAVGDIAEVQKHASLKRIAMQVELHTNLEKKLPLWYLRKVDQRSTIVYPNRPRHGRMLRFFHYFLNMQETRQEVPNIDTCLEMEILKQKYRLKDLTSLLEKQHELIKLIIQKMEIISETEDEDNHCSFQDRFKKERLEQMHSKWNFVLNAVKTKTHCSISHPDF
Description: In this example, the compounds prepared in some examples of the present invention (shown in Table 1) were tested for their inhibitory activity on the transient receptor potential channel protein TRPA1. Wherein, compound of formula A (WO2010075353) was used as positive control: […]
Test method by using IonWorks Barracuda (IWB) automatic patch clamp detection: HEK293 cells stably expressing TRPA1 were placed in a 37° C., 5% CO2 incubator and incubated with DMEM medium containing 15 μg/mL Blasticidin S HCl, 200 μg/mL Hygromycin B and 10% FBS serum in a T175 culture flask. When the cell density grew to […], the culture medium was removed, the cells were washed with calcium and magnesium free phosphate buffered saline (PBS), and 3 mL of Trypsin was added and digested for 2 minutes, and 7 mL of culture medium was added to terminate the digestion. […]
Data recording and current amplitude measurement and export were completed by IWB Software (version 2.5.3, Molecular Devices Corporation, Union City, CA). The statistics of the well with a sealing impedance lower than 20 M Ω were not recorded. The original current data was corrected by software, the TRPA1 current amplitude was measured in +100 mV. […] The dose-effect curve and IC50 of compounds were fitted and calculated by GraphPad Prism 5.02 (GraphPad Software, San Diego, CA).

[1] = system: acetic acid writhing pain model in mice; experiment: Acetic acid writhing pain model in mice; assay type: in vivo, ICR mice
Description: ICR mice, male, 22-25 g, were fasted for food 2 h before administration, but can have water. All ICR mice were weighed and randomly grouped with the number of animals>10 per group. […] The mice were administered via intragastric administration according to the weight of mice. 1.5% acetic acid solution (0.1 ml/10 g) was intraperitoneally injected at 1 hour after administration, and the number of times of visceral pain in each group within 30 minutes was observed, the mice were counted once when the abdomen was concave, the trunk and hind legs were extended and the hips were elevated, and the number of times of these phenomena occurred within 30 min was finally counted.

[2] = system: formalin pain model in mice; experiment: Formalin pain model in mice; assay type: in vivo, C57BL/6 mice
From the text: 150 C57BL/6 mice (male, 9 weeks) were randomly divided into 15 groups with 10 mice for each group, and were used for the analgesic activity test of 3 compounds in the formalin pain model in mice: the compound I-1 group (compound I-1 prepared in Example 2, its hydrochloride was used in the experiment), the S-duloxetine group (its hydrochloride was used in the experiment) and the compound C1 group (compound C1 prepared in Comparative Example 1, its hydrochloride was used in the experiment), respectively. Before the start of the experiment, the mice were allowed to adapt to the experimental environment for 72 hours, during which there was no need to fast for food or water. The tested drugs were administrated by intraperitoneal injection, and the doses were as follows: • The compound I-1 group: blank Vehicle (blank normal saline control), 0.1 mg/kg, 0.5 mg/kg, 1 mg/kg, 5 mg/kg and 10 mg/kg; • The S-duloxetine group: blank Vehicle (blank normal saline control), 1 mg/kg, 5 mg/kg, 10 mg/kg and 20 mg/kg; • The Compound C1 group: blank Vehicle (blank normal saline control), 0.1 mg/kg, 0.5 mg/kg, 1 mg/kg, 5 mg/kg and 10 mg/kg.
After the administration, the mice were placed in a transparent, ventilated plexiglass cylinder, and 1 hour later, 20 μl of 4% formalin solution was injected into the left hind foot plantar of each group of mice with a micro-injector, and foot pain response in mice were recorded in real time with a miniature camera. The length of time of licking the left foot was used as an indicator of pain response, the licking time were observed and recorded during two periods of 0-10 min (phase I) and 10-60 min (phase II) respectively, for statistical analysis, and the half effective dose (ED50) of the 3 compounds were calculated: ED50 refers to the drug dose that reduces the licking time by half compared with the blank control group. The smaller the ED50 value is, the lower the effective analgesic dose of the compound is and the better its analgesic effect is.

## CNCC[C@@H](Oc1cccc2ccoc12)c1cccs1 [Compound I-1, (R)-3-(benzofuran-7-yloxy)-N-methyl-3-(thiophen-2-yl)propan-1-amine]
TRPA1
  activity ratio (IC50 of compound C2/IC50 of compound I-1): about 6.3
[1]; 5 mg/kg intragastric
  number of visceral pains lower than normal saline control group: 50%
[1]; Mus musculus, po, intragastric, mice, read-out: half effective dose (ED50) in acetic acid writhing model
  ED50: < 5 mg/kg
[2]; Mus musculus, ip, intraperitoneal, phase II (10-60 min), dose that halves licking time vs blank control, read-out: analgesic potency ED50 in phase II pain
  ED50: 0.26 mg/kg
[2]; phase II pain, formalin model in mice
  ED50 times stronger than that of C1 compound: 8.5 times
